Results from ChEMBL document CHEMBL1201862, “PubChem BioAssay data set” (2004).
Calls of active or inactive are those of the source.

Assays:
[1] = Artemis endonuclease inhibitor potency, dose response, biochemical, fluorescence intensity (AID 720701); assay type: functional;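 further: Artemis endonuclease enzyme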
[2] = cytotoxicity in OVCAR8 ovarian cancer cells, dose response, PAX8 project, cell-based, plate reader, dry powder samples (AID 743197); assay type: functional; conditions: OVCAR-8
Paired box protein Pax-8 = Paired box protein Pax-8 (Homo sapiens, UniProt Q06710); assay: inhibitors of PAX8-driven TPO luciferase reporter, dose response, RMG-I cells, cherry-pick (AID 687027); assay type: functional, cell-based;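 further: luciferase reporter driven by Pax8 target thyroperoxidase promoter measured by SteadyGlo luminescence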
[3] = IOSE-T80 ovarian epithelial cell cytotoxicity, dose response, cytotoxicity control for PAX8 inhibitor project, plate reader, dry powder samples (AID 743045); assay type: functional, cell-based
[4] = IGROV1 ovarian cancer cell cytotoxicity, dose response, PAX8 inhibitor project, plate reader, dry powder samples (AID 743043); assay type: functional, cell-based; conditions: IGROV-1
[5] = NIH:OVCAR-3 ovarian cancer cell cytotoxicity, dose response, PAX8 inhibitor project, plate reader, dry powder samples (AID 743044); assay type: functional, cell-based
[6] = HEK293 cell cytotoxicity, dose response, cytotoxicity control, plate reader, cherry-picked samples (AID 743446); assay type: functional, cell-based
[7] = non-specific cell cytotoxicity, dose response, cytotoxicity control for PAX8 inhibitor project, plate reader, dry powder samples (AID 743021); assay type: functional, cell-based
[8] = control 3'UTR Renilla luciferase suppression, dose response, counter-screen for Shn3 inhibitor project, cell-based, Clone20-Shn3RL, cherry-picked (AID 624133); assay type: functional
[9] = molecular target: T1, Heat shock factor protein 1 (Mus musculus, UniProt P38532); assay: inhibition of MG132-induced HSE-luciferase signal, confirmation, cell-based, NIH3T3, luminescence, dose retest (AID 2382); assay type: functional;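 further: NIH3T3 fibroblasts with HSF1-driven luciferase reporter stressed by proteasome inhibitor MG132; luminescence from HSF1-driven luciferase expression after 8 hours of MG132 stress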
T1 sequence (P38532 whole entry): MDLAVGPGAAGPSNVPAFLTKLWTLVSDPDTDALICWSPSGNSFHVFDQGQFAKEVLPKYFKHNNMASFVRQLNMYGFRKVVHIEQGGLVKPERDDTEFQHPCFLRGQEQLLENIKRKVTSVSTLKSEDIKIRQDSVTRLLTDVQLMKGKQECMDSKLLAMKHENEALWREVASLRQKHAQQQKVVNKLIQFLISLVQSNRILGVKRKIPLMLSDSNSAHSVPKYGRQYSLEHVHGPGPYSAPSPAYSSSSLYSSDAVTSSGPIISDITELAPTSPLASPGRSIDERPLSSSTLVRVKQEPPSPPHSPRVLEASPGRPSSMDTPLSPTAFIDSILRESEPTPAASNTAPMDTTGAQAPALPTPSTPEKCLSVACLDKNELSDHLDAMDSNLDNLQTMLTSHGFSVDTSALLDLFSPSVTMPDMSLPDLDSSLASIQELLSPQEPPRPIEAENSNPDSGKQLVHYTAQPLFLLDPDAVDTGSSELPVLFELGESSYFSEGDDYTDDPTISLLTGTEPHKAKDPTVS

[10] = LGR2 antagonists, dose response, cell-based, HEK293, CRE-luciferase reporter, cherry pick, set 2 (AID 743343); assay type: functional;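 further: transfected cells were stimulated with diluted bursicon conditioned medium after compound addition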
[11] = molecular target: T2, Microphthalmia-associated transcription factor (Homo sapiens, UniProt O75030); assay: TRPM1 promoter luciferase signal decrease, dose response, MITF inhibitor project, cell-based, SK-MEL-5, cherry-picked, set 3 (AID 493073); assay type: functional
T2 sequence (O75030 whole entry): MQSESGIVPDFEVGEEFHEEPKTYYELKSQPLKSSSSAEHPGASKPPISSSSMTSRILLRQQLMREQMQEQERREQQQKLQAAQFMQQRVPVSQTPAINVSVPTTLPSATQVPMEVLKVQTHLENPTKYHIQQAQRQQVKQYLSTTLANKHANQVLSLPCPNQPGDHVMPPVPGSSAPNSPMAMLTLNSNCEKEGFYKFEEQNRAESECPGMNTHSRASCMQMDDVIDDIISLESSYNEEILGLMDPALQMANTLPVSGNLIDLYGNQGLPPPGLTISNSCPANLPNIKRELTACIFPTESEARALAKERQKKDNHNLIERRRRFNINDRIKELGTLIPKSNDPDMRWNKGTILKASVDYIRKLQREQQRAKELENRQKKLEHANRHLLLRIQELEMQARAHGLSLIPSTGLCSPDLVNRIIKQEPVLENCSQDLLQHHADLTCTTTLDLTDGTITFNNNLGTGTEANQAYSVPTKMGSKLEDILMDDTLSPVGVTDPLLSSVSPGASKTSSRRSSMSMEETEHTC

[12] = HepG2 cell cytotoxicity, dose response, cytotoxicity control for Shn3 inhibitor project, CellTiter-Glo, cherry-picked (AID 624134); assay type: functional, cell-based
[13] = Shn3 3'UTR reporter inhibitors, dose response, cell-based, Clone20 osteoblasts, firefly luciferase, cherry-picked (AID 624132); assay type: functional;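 further: firefly luciferase luminescence from reporter carrying the Shn3 3'UTR in osteoblasts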
[14] = A549 cell cytotoxicity, dose response, cytotoxicity control, plate reader, cherry-pick, antagonist series (AID 743412); assay type: functional, cell-based
[15] = MC4R antagonists, dose response, counter-screen for LGR2 antagonist project, cell-based, plate reader, cherry pick (AID 743444); assay type: functional;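 further: transfected HEK 293 cells stimulated with alpha-MSH peptide; potency of inhibitors of the alpha-MSH evoked signal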
[16] = Luminescence Cell-Based Dose Retest to Confirm Inhibitors of Cancer Stem Cells. [Related pubchem assays (depositor defined):AID2717, AID2721]; assay type: functional, Homo sapiens; conditions: Homo sapiens
[17] = HepG2 cell cytotoxicity, dose response, cytotoxicity control, plate reader, cherry-pick, antagonist series (AID 743416); assay type: functional, cell-based
[18] = molecular target: Endoplasmic reticulum aminopeptidase 1 (Homo sapiens, UniProt Q9NZ08); assay: ERAP1 aminopeptidase inhibitors, dose response, biochemical, cherry-pick, set 2, plate reader (AID 743314)
[19] = Luminescence-based cell-based high throughput dose response assay to identify activators of the DAF-12 from the parasite S. stercoralis (ssDAF-12).; assay type: functional

Sequence of Paired box protein Pax-8 (Q06710 whole entry): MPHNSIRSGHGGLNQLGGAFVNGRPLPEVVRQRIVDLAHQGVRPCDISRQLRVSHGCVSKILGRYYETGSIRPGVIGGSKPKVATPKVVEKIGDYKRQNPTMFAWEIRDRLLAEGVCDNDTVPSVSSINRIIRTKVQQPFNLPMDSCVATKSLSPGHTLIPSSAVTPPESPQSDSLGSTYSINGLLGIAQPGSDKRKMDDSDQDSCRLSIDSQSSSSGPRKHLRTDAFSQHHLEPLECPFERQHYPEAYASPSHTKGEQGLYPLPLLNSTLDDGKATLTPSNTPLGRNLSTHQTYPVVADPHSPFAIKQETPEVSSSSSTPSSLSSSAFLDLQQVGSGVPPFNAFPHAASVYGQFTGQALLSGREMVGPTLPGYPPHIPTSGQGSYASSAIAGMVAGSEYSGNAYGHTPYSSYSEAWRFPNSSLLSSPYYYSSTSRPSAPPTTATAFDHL
Sequence of Endoplasmic reticulum aminopeptidase 1 (Q9NZ08 whole entry): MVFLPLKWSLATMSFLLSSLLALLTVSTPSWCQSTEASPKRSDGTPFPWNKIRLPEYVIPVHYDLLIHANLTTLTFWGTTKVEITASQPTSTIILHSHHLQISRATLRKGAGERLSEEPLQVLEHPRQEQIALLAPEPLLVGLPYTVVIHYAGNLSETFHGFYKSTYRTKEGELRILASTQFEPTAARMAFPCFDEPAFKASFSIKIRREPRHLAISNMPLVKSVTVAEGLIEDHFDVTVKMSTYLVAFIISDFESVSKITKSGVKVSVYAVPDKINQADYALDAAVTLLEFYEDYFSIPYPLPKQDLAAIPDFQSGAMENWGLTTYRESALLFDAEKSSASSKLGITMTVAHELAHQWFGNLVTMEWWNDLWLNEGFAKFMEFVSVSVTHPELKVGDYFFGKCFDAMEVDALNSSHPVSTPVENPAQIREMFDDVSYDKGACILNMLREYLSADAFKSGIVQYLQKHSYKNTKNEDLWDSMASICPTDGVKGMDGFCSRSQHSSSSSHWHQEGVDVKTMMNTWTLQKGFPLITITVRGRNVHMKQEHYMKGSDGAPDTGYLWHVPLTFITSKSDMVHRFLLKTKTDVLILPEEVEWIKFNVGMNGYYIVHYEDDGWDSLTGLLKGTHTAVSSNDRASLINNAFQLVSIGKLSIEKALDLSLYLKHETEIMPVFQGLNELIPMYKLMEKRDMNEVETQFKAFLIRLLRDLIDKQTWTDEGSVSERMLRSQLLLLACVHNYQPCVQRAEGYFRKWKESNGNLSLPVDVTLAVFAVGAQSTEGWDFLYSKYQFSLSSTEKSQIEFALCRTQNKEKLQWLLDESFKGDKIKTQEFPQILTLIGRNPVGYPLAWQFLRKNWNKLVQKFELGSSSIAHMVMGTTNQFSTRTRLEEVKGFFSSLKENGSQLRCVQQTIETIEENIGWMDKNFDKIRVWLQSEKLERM

COc1cccc(OC)c1-c1nn2c(-c3cc(-c4ccccc4)[nH]n3)nnc2s1
IC50 [1]: 1.96 µM (active)

COc1ccc(S(=O)(=O)N(C)C[C@@H]2Oc3ccc(NC(=O)Nc4ccc(C(F)(F)F)cc4)cc3CC(=O)N([C@H](C)CO)C[C@@H]2C)cc1
AC50 [2]: 22.1 µM (active) | AC50 (Paired box protein Pax-8): 4.64 µM (active) | AC50 [3]: 13.8 µM (active) | AC50 [4]: 16.8 µM (active) | AC50 [5]: 6.36 µM (active)

CCN1CCc2nc(NC(=O)C(c3ccccc3)c3ccccc3)sc2C1
IC50 [1]: > 20 µM (inactive)

O=C(Nc1ccc2nc3n(c(=O)c2c1)CCCCC3)c1cc([N+](=O)[O-])ccc1F
AC50 (Paired box protein Pax-8): 14.3 µM (active) | AC50 [6]: 14.7 µM (active) | AC50 [7]: 42.6 µM (active) | AC50 [8]: 9.99 µM (active) | EC50 [9]: > 195 µM (not active) | AC50 [10]: 6.52 µM (active) | AC50 [11]: 10.7 µM (active) | AC50 [12]: 42.2 µM (active) | AC50 [13]: 14.1 µM (active) | AC50 [14]: 17.5 µM (active) | AC50 [15]: 11.5 µM (active) | AC50 [16]: 5.51 µM (active) | AC50 [17]: 18.3 µM (active)

CN1[C@@H]2c3ccc(/C=C/c4ccccc4)c(=O)n3C[C@@H]2[C@@H](CO)[C@@H]1C(=O)NC1CCCC1
AC50 [18]: 17.5 µM (active)

COc1ccc(-c2nn(-c3ccccc3)cc2C(=O)Nc2nc(CC(C)=O)ns2)cc1
IC50 [1]: > 20 µM (inactive)

CC(C)(C)C1CCC(=NN=C(S)Nc2cccnc2)CC1 (stereo not drawn)
IC50 [19]: > 67.5 µM (inactive)
